Reference: patent US12441775B2, “BCL-W polypeptides and mimetics for treating or preventing chemotherapy-induced peripheral neuropathy and hearing loss” (Dana-Farber Cancer Institute, Inc., priority 2016, dated 2025)

Test system: axons of E15 DRG sensory neurons
Assay: Axonal degeneration assay in compartmented chamber cultures (degeneration index)
Format: cell-based, rat
Description: Cell culture. Compartmented chamber (Campenot) cultures were prepared as described (see, e.g., Fenstermacher et al., Springer Protocols: Neuromethods, 103:105-124 (2015)), with modifications. Briefly, DRGs from embryonic day 15 (E15) rats of either sex were dissected and trypsinized. DRGs (1.2×10^5 cells) were plated in the center compartment of a Teflon divider (Camp10, Tyler Research; Campenot, 1982) affixed to a p35 culture dish coated with growth factor reduced Matrigel basement membrane (BD Biosciences) 1:45 in DMEM. Cultures were maintained in media consisting of Neurobasal (Invitrogen) with 2% B27 supplement (Invitrogen), 1% penicillin-streptomycin, 1% GlutaMAX (Life Technologies), 0.08% glucose, and 0.3 μM cytosine arabinoside (AraC) at 37° C., 7.5% CO2; BDNF+NGF (PeproTech) were added to the cell body compartment at a concentration of 10 ng/ml and to the axon compartment at a concentration of 100 ng/ml for 2d. On day 3, media was replaced and the AraC was omitted. On day 5, neurotrophins were removed from the cell body compartment and reduced to 1 ng/ml in the axon compartments for 3-5 days. […] For calpain inhibition experiments, 20 μM calpain inhibitor III (VWR) and paclitaxel were added simultaneously to distal axon compartment.
Axonal degeneration assay. Compartmented chamber cultures were fixed at room temperature with 4% PFA diluted 1:2 in media for 10 min, then undiluted 4% PFA for an additional 20 min. Cultures were permeabilized with 0.1% TritonX-100 for 10 min, blocked in 3% BSA and 0.1% Triton X-100 for 1 hour at room temperature, and incubated with mouse anti-Tuj1 (1:400; clone Tuj1; Covance) overnight at 4° C. Cultures were then incubated with goat anti-mouse AlexaFluor (1:1000; Invitrogen) for 1 hour at room temperature and counterstained with DAPI. Images of distal axon tips were obtained using a 40× air objective, and axonal degeneration was quantified as a degeneration index, as previously described (Cosker et al., Neuroscience, 33:5195-5207 (2013)). Apoptosis analysis was carried out on the same cultures by taking images in the cell body compartment and counting total and condensed nuclei in NIH ImageJ software by an observer blind to condition.
Protein and peptide introduction. Recombinant His-tagged Bclw, Bcl2, and BclxL proteins (R&D Systems) or control β-galactosidase protein were introduced into cell bodies or axons of compartmented chamber cultures as described (e.g., Cosker et al., Nature Neuroscience, 19:690-696 (2016)). Briefly, 1 μg/μ1 protein was introduced into cultures using 2 μl Chariot reagent (Active Motif). To confirm expression of His-tagged proteins, cell bodies and axons were lysed in nonionic detergent, and protein lysates were separated as above and blotted with the following antibodies: anti-His (1:1000; Novagen) and anti-pan-actin (1:1000; Cell Signaling Technology). FITC-tagged SAHB peptides (BH4-Bclw, BH4-Bcl2, and BH4-BclxL; stock solutions 1 mM in DMSO) were introduced into cell bodies or axons using 350 ng peptide and 2 μl of Chariot reagent diluted 1:10 in water. Control was no peptide with 2 μl of 1:10 diluted Chariot. To confirm peptide expression, cultures were processed for axonal degeneration assay as above, and FITC immunofluorescence was examined with a 40× air objective. Paclitaxel was added to cultures 1 hour after protein or peptide transfection.

[1] = His-tagged recombinant protein transfected into axons
[2] = protein introduced into cell bodies instead of axons

Molecule: Bcl2: Recombinant His-tagged Bcl2 protein (R&D Systems) introduced by protein transfection
- effect on paclitaxel-induced axon degeneration [1]: neither BclxL nor Bcl2 prevented degeneration
- effect on paclitaxel-induced axon degeneration [2]: failed to inhibit paclitaxel-induced degeneration

Molecule: BclxL: Recombinant His-tagged BclxL protein (R&D Systems) introduced by protein transfection
- effect on paclitaxel-induced axon degeneration [1]: neither BclxL nor Bcl2 prevented degeneration
- effect on paclitaxel-induced axon degeneration [2]: failed to inhibit paclitaxel-induced degeneration

Molecule: calpain inhibitor III
- effect on paclitaxel-induced axon degeneration (20 μM to axons, added with paclitaxel): prevented paclitaxel-induced degeneration

B1: Bclw: Recombinant His-tagged Bclw protein (R&D Systems) introduced by protein transfection (protein, UniProt Q92843 2-193, looked up)
Bcl-2-like protein 2: ATPASAPDTRALVADFVGYKLRQKGYVCGAGPGEGPAADPLHQAMRAAGDEFETRFRRTFSDLAAQLHVTPGSAQQRFTQVSDELFQGGPNWGRLVAFFVFGAALCAESVNKEMEPLVGQVQEWMVAYLETQLADWIHSSGGWAEFTALYGDGALEEARRLREGNWASVRTVLTGAVALGALVTVGAFFASK
modifications: His tag
notes: Recombinant His-tagged Bclw protein (R&D Systems) introduced by protein transfection
- effect on paclitaxel-induced axon degeneration [1]: completely prevented paclitaxel-induced axon degeneration
- effect on paclitaxel-induced axon degeneration [2]: failed to inhibit paclitaxel-induced degeneration
